Data published in patent publication US12281329B2, “Compositions and methods for immune cell modulation in adoptive immunotherapies” (Fate Therapeutics, Inc., priority 2016, dated 2025).

Key:
[1] = system: K562 tumor cells and allogeneic PBMC; assay: Dual-target cytotoxicity assay, K562 tumor cells mixed with allogeneic PBMC; assay type: cell-based, human; conditions: GSK3i modulated NK cells; 3-4 NK cell donors per PBMC donor
Protocol: Cytotoxicity of GSK3i modulated NK cells against allogeneic PBMC was evaluated in combination with K562 tumor cells in a dual-target cytotoxicity assay. Percent specific killing in PBMC+K562+overnight primed NK cells or PBMC+K562+GSK3i modulated NK cells was measured.

[2] = system: NK cells; assay: NK cell intracellular cytokine staining after IL-12+IL-18 or K562 stimulation; assay type: cell-based, human; conditions: 7 days 10 ng/ml IL-15 + 5 uM CHIR99021; 4-hour IL12+IL18 or K562 stimulation; vs primed or 7 day IL15 only
Protocol: NK Cell Intracellular Cytokine Staining: CD3/CD9 depleted PBMC were cultured for 7 days with 10 ng/ml IL-15 and 5 uM CHIR99021 or vehicle control. On culture day 7 cells were washed and cultured separately with IL-12 and IL-18 (long/ml and 50 ng/ml, respectively) (Life Technologies) or with K562 cells at a 1:1 ratio. Golgistop (BD Biosciences) was included in the culture media to facilitate intracellular detection of cytokines. After a 4 hour culture period, cells were stained for cell surface antigens and fixed prior to intracellular staining with antibodies to IFN-gamma and TNF-alpha (BD Biosciences). Staining was performed using the BD Cytofix/Cytoperm™ Kit according to the manufacturer's instructions.
Also analyzed was the effect of GSK3 inhibitor treatment to NK cell cytokine response. PBMC obtained directly from donors were cultured after CD3/CD9 depletion for 7 days with 10 ng/ml IL-15 and 5 uM CHIR99021, or with IL15 only. On day 7, cells were washed and cultured separately with IL-12 (long/ml) and IL-18 (50 ng/ml), or with K562 cells at a 1:1 ratio for stimulation. After a 4-hour culture period, cells were stained for cell surface antigens and fixed prior to intracellular staining with antibodies to IFNγ and TNFα, respectively.

[3] = system: HER2+A549 cells; assay: NK cell Herceptin ADCC killing of A549 cells; assay type: cell-based, human; conditions: NK cells cultured with GSK3i for 7 days
[4] = system: primary AML blasts; assay: NK cell cytotoxicity against primary AML blasts; assay type: cell-based, human; conditions: multi-day IL-15 + GSK3i NK cells vs overnight primed
Protocol: (§1) NK Cell Cytotoxicity Assay: Cytotoxicity was determined using a flow cytometry based method based on a previously published method (Kim, et al. J Immunol Methods. 2007 Aug. 31; 325(1-2): 51-66). NK cells were co-cultured with e450-proliferation dye-labelled targets for 4 hours. CellEvent™ Caspase-3/7 Green Flow Cytometry Assay Kit (Lifer Technologies) was used to assay for cell death among target cells, and samples were read on a BD LSRFortessa cytometer. Killing of SKOV-3 targets was quantified using the Incucyte Zoom instrument. SKOV-3 cells were transiently transduced with NucLight-Red BacMam reagent (Essen Biosciences) and co-cultured with the indicated NK cell populations for 74 hours, with images taken on two hour intervals. Caspase 3/7 activity was monitored to indicate target cells undergoing apoptosis using the CellEvent™ Caspase-3/7 Green Detection Reagent. The number of target cells was normalized to SKOV-3 cells cultured alone, and targets undergoing apoptosis were quantified based on caspase 3/7 activity.
Cytotoxicity of CD3/CD19 depleted PBMC cultured multiple days with IL-15 and GSK3i (GSK3i modulated NK cells) versus overnight primed NK cells against primary AML blasts were also compared. Percent specific killing of primary AML blasts from multiple patients was measured by flow cytometry-based cytotoxicity assay.

[5] = system: CD20+ Raji cells; assay: NK cell cytotoxicity assay, Raji target cells; assay type: cell-based, human; conditions: 4 hours; NK cells overnight IL-15 only or 7 days IL15 + GSK3i
Protocol: as §1
The ability of GSK3 inhibition to enhance cytotoxicity of NK cells isolated directly from donors was assessed using in vitro killing assays. […] After the target cells were incubated with the differently treated NK cells for 4 hours, the respective percentage of specific killing (target cell lysis) was calculated. […]

[6] = system: HER2+ SKOV3 cells; assay: NK cell killing and Herceptin ADCC of SKOV3 cells; assay type: cell-based, human
Protocol: as §1
In a similar fashion, SKOV3 cells were treated with NK cells derived from overnight culture with IL15, 7 day culture with IL15 and 7 day culture with IL15 and GSK3i. […]

[7] = system: NK cells; assay: Maintenance of modulated NK cell phenotype after transfer into NSG mice; assay type: in vivo
Protocol: The mice received only IL-15 with no GSK3i. It was shown that NK cells cultured in vitro with GSK3i for 7 days maintain their phenotypic changes in vivo for at least one week after being transferred and without the presence of the small molecule. CD57 remains high representing the maturity of the NK cells which was not the case when the cells were cultured without GSK3i (FIGS. 9A and 9B).

[8] = system: NK cells; assay: Sorted NK cell populations (CD57/NKG2C) cultured with CHIR99021: maturation; assay type: cell-based, human; conditions: 7 day
Protocol: NK Cell Sorting: CD3/CD19 depleted PBMC were labelled with 10 uM e450 proliferation dye (eBioscience) and stained with FITC-conjugated anti-CD57, PE-Conjugated anti-NKG2C, APC-conjugated anti-CD56, and Percp-Cy5.5-conjugated anti-CD3 antibodies (BD Biosciences and R&D Systems). Four populations of CD3-CD56+NK cells were sorted according to the expression of CD57 and NKG2C; CD57+NKG2C−, CD57+NKG2C+, CD57-NKG2C+, and CD57-NKG2C−. Sorted NK cell populations were cultured at a 2:1 ratio of NK:monocytes in BO media with 10 ng/ml IL-15 and CHIR99021 or vehicle control. Stained but unsorted cells were cultured in parallel as a control.
CD3/CD19 depleted PBMC were labelled with e450 proliferation dye, and CD56+CD3− NK cells were sorted in bulk or were sorted into 4 populations based on expression of CD57 and NKG2C expression (FIG. 5A). Total, unfractionated, NK cells were cultured alongside CD57+NKG2C− (Q1), CD57+NKG2C+(Q2), CD57−NKG2C+(Q3), CD57−NKG2C− (Q4) sorted NK cells with either (1) cytokine (10 ng/ml IL15) and 5 μM CHIR99021, or (2) cytokine only with vehicle control (for example, DMSO only) (FIG. 5B) with autologous CD14+ monocytes in a 1:1 ratio of NK cells:monocytes. After the 7 day culture period, cultures of each sorted population were stained for flow cytometry and analyzed for proliferation and cell surface marker expression. […]

Cc1c[nH]c(-c2cnc(NCCNc3ccc(C#N)cn3)nc2-c2ccc(Cl)cc2Cl)n1 [CHIR99021]
percent specific killing of K562 versus allogeneic PBMC [1]: selectively target those cells among normal cells | IFNγ production in NK cells [2]: enhanced | TNFα production in NK cells [2]: enhanced | ADCC-mediated killing of A549 cells (rate and efficiency) [3]: enhanced | percent specific killing of primary AML blasts [4]: highly and consistently effective | E:T50, Raji cells [5]: 1-2 | killing of SKOV3 cells (killing rate and killing efficiency; elimination, caspase 3/7 peak) ([6]; 7 day IL15 + GSK3i vs overnight IL15 and 7 day IL15): most effective | ADCC killing of SKOV3 with HER2 antibody (Herceptin) ([6]; NK cells 7 days IL15 + GSK3i vs overnight IL15 and 7 day IL15): enhanced | CD57 on NK cells from peripheral blood ([7]; 7 days after transfer of 7 day IL15+GSK3i cultured NK cells, mice received only IL-15): remains high | CD16 and NKG2C+/CD57+ on transferred NK cells ([7]; 7 days after transfer, without small molecule): maintained in vivo | expression of CD57 in Q3 and Q4 sorted cells (CD57− before culturing) ([8]; 10 ng/ml IL15 + 5 μM CHIR99021): upregulated | CD57 expression in the total NK cells ([8]; 10 ng/ml IL15 + 5 μM CHIR99021, unsorted): significant increase
